Experiments:
[1] = tested on: MIAPaCa-2 (pancreas); assay: In vitro cytotoxic activity assay (MTT), MIAPaCa-2; type: cell-based; conditions: Homo sapiens, MIA PaCa-2; MIAPaCa-2 (pancreas) cells, exposed for 96 hours; read-out: IC50, concentration eliciting a 50% inhibition of cell proliferation
Experimental: (§1) Compounds 1-15 were screened for their in vitro cytotoxic activity utilizing a 3-(4,5-dimethyl-thiazol-2-yl)-2,5-diphenyltetrazolium bromide (MTT) assay against selected cancer human cell lines consisting of PC3 (prostate), HCT116 (colon), A375 (melanoma), H1299 (lung), MIAPaCa-2 (pancreas), HL60 (leukemia), MCF7 (breast), MDA-MB-231 (breast) (T. Mosmann, J. Immunol. Meth., 1983, 65, 55-63). The cells were cultured at 37° C. in RMPI1640 medium supplemented with 10% fetal bovine serum, 50 IU/mL penicillin, and 50 μg/mL streptomycin in a 5% CO2 incubator. All cells were sub-cultured 3 times/week by trypsinisation. Viable cells were seeded and allowed to adhere for 12 h before a test drug was added in 96-well plates at an initial density of 1.0×10^5 cells/mL. Tumour cell lines were separately exposed to various concentrations of the tested compounds followed by incubation at a temperature of 37° C. during 96 h inside a medium of fresh RMPI 1640. Cells were subsequently incubated at 37° C. using MIT at 0.5 mg/mL during 4 h. After removal of supernatant, formazan crystals were dissolved in isopropanol and the optical density was measured at 570 nm. CX-4945 was used as a positive control.

[2] = tested on: HL60 (leukemia); assay: In vitro cytotoxic activity assay (MTT), HL60; type: cell-based; conditions: Homo sapiens, HL-60; HL60 (leukemia) cells, exposed for 96 hours; read-out: IC50, concentration eliciting a 50% inhibition of cell proliferation
Experimental: as §1

[3] = tested on: H1299 (lung); assay: In vitro cytotoxic activity assay (MTT), H1299; type: cell-based; conditions: Homo sapiens, NCI-H1299; H1299 (lung) cells, exposed for 96 hours; read-out: IC50, concentration eliciting a 50% inhibition of cell proliferation
Experimental: as §1

[4] = tested on: MCF7 (breast); assay: In vitro cytotoxic activity assay (MTT), MCF7; type: cell-based; conditions: Homo sapiens; MCF7 (breast) cells, exposed for 96 hours; read-out: IC50, concentration eliciting a 50% inhibition of cell proliferation
Experimental: as §1

[5] = tested on: MDA-MB-231 (breast); assay: In vitro cytotoxic activity assay (MTT), MDA-MB-231; type: cell-based; conditions: Homo sapiens; MDA-MB-231 (breast) cells, exposed for 96 hours; read-out: IC50, concentration eliciting a 50% inhibition of cell proliferation
Experimental: as §1

[6] = target: T1, recombinant human CK2 (RRββ-holoenzyme) (Homo sapiens, UniProt P68400); assay: CK2 Kinase Assay (33P-ATP, filter plate); type: biochemical; conditions: final ATP concentration 15 μM, 10 min at 30° C.; read-out: protein kinase CK2 activity IC50
T1 construct: purchased Millipore
T1 sequence (P68400 whole entry): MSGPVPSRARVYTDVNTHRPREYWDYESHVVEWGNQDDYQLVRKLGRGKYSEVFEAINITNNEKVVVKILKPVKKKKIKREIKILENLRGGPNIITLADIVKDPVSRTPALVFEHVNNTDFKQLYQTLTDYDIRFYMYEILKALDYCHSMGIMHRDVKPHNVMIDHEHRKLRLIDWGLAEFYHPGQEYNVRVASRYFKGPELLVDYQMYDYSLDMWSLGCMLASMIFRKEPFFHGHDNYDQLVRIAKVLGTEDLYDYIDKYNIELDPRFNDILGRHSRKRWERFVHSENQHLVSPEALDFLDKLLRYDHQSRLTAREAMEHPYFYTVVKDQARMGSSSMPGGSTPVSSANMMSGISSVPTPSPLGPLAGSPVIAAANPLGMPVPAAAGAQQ
T1 sequence (P67870 whole entry partner): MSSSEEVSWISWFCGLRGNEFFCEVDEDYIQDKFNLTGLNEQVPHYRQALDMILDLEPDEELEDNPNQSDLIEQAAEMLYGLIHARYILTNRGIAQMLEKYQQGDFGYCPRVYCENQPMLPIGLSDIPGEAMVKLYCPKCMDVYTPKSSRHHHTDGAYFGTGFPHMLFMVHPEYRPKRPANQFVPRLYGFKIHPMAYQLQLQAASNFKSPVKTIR
Experimental: CK2 Kinase Assay was conducted using the protocol as described in Pierre F. et al; J. Med. Chem. 2011, 54, 635-654. The tested compounds in aqueous solution were added at a volume of 10 μL to a reaction mixture comprising 10 μL of assay dilution buffer (ADB; 20 mM MOPS, pH 7.2, 25 mM β-glycerol phosphate, 5 mM EGTA, 1 mM sodium orthovanadate, and 1 mM dithiothreitol), 10 μL of substrate peptide (RRRDDDSDDD, dissolved in ADB at a concentration of 1 mM), 10 μL of recombinant human CK2 (RRββ-holoenzyme, 25 ng dissolved in ADB; Millipore). Reactions were initiated by the addition of 10 μL of ATP solution (90% 75 mMMgCl2, 75 μM ATP (final ATP concentration: 15 μM) dissolved in ADB; 10% [γ-33P] ATP (stock 1 mCi/100 μL; 3000 Ci/mmol (Perkin-Elmer) and maintained for 10 min at 30° C. The reactions were quenched with 100 μL of 0.75% phosphoric acid and then transferred to and filtered through a phosphor cellulose filter plate (Millipore). After washing each well five times with 0.75% phosphoric acid, the plate was dried under vacuum for 5 min and, following the addition of 15 μL of scintillation fluid to each well, the residual radioactivity was measured using a Wallac luminescence counter. The IC50 values were derived from eight concentrations of test inhibitors.

[7] = tested on: HCT116 (colon); assay: In vitro cytotoxic activity assay (MTT), HCT116; type: cell-based; conditions: Homo sapiens, HCT-116; HCT116 (colon) cells, exposed for 96 hours; read-out: IC50, concentration eliciting a 50% inhibition of cell proliferation
Experimental: as §1

[8] = tested on: PC3 (prostate); assay: In vitro cytotoxic activity assay (MTT), PC3; type: cell-based; conditions: Homo sapiens, Prostate cell; PC3 (prostate) cells, exposed for 96 hours; read-out: IC50, concentration eliciting a 50% inhibition of cell proliferation
Experimental: as §1

[9] = tested on: A375 (melanoma); assay: In vitro cytotoxic activity assay (MTT), A375; type: cell-based; conditions: Homo sapiens, A-375; A375 (melanoma) cells, exposed for 96 hours; read-out: IC50, concentration eliciting a 50% inhibition of cell proliferation
Experimental: as §1

IC50 [6]: 56 nM
SMILES: Clc1cccc(-n2c3ccncc3c3nc4ccncn4c32)c1 [Compound 1, 5-(3-chlorophenyl)-5H-pyrido[3″,4″:4′,5′]pyrrolo[3′,2′:4,5]imidazo[1,2-c]pyrimidine]
IC50 [1]: 900 nM
IC50 [2]: 2800 nM
IC50 [3]: 2600 nM
IC50 [4]: 4100 nM
IC50 [5]: 2400 nM
IC50 [7]: 2100 nM
IC50 [8]: 1300 nM
IC50 [9]: 3700 nM

— US11905288B1, “Pyrido[3″,4″:4′, 5′]pyrrolo[3′,2′:4,5]imidazole[1,2-c]pyrimidine compounds as CK2 inhibitors” (KING FAISAL UNIVERSITY, priority 2023, dated 2024)
